In one test the target is αCD40-mSAs. The test can be described thus: fluorescence polarization titration. The settings on record: PBS; 20 nM biotin-FITC (Millipore-Sigma cat. 53608); labelled compound. The format is binding.
The target of another test is recombinant streptavidin (Streptomyces avidinii, UniProt P22629). The test can be described thus: fluorescence polarization titration. The format is binding. The settings on record: PBS; 20 nM biotin-FITC (Millipore-Sigma cat. 53608); labelled compound.
Chain of recombinant streptavidin (P22629 25-183): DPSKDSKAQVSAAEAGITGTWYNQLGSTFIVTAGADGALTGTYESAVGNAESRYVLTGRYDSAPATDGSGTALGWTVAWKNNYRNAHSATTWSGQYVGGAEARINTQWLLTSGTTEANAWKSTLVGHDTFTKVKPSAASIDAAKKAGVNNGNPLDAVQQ

With biotin-FITC, the Kd turned out to be 0.0692 µM at αCD40-mSAs and 0.0206 µM on recombinant streptavidin.

For the origin of these results see article doi:10.1101/2025.07.30.663779v2 (biorxiv, 2025).
